Test results from the NIST ThermoML archive (doi:10.1007/s10765-019-2573-6).

Conditions: Liquid, Vibrating wire viscometry

CCCCOC(=O)CCCCC(=O)OCCCC [dibutyl hexanedioate]
viscosity [mPa·s]
Conditions	100 kPa	1000 kPa	5000 kPa	10000 kPa	15000 kPa	20000 kPa	30000 kPa	40000 kPa
283.15 K	–	–	–	–	8.961	–	10.62	11.95
283.16 K	7.383	7.493	–	–	–	9.508	–	–
283.17 K	–	–	7.896	8.407	–	–	–	–
293.14 K	–	5.566	–	–	6.585	–	–	8.724
293.15 K	5.499	–	5.84	6.196	–	6.982	7.808	–
303.15 K	4.237	–	4.49	4.759	5.029	5.323	5.933	6.592
303.16 K	–	4.288	–	–	–	–	–	–
313.15 K	3.375	3.411	3.566	3.769	3.979	4.197	4.66	5.153
323.15 K	–	2.774	2.9	3.061	3.224	3.393	3.754	4.146
323.16 K	2.746	–	–	–	–	–	–	–
333.14 K	–	–	–	2.54	–	–	–	–
333.15 K	2.282	2.304	2.407	–	–	2.814	3.106	3.412
333.16 K	–	–	–	–	2.675	–	–	–
343.15 K	1.93	1.95	2.035	2.144	2.257	2.37	2.612	2.859
353.15 K	1.655	1.672	1.746	1.839	1.933	2.031	2.23	2.438
363.15 K	1.437	1.452	–	–	1.675	1.757	1.93	2.108
363.16 K	–	–	–	1.594	–	–	–	–
363.17 K	–	–	1.513	–	–	–	–	–

CCOC(=O)CCCCC(=O)OCC [diethyl hexanedioate]
viscosity [mPa·s]
Conditions	100 kPa	1000 kPa	5000 kPa	10000 kPa	15000 kPa	20000 kPa	30000 kPa	40000 kPa
283.15 K	4.541	4.59	4.792	5.062	5.332	5.622	–	6.887
283.16 K	–	–	–	–	–	–	6.223	–
293.15 K	3.486	3.521	3.672	3.868	4.075	4.278	4.722	5.195
303.15 K	2.766	2.792	2.912	3.063	3.207	3.361	3.696	4.042
313.15 K	2.252	–	2.362	2.478	2.597	2.721	2.978	3.251
313.16 K	–	2.272	–	–	–	–	–	–
323.15 K	1.87	1.886	1.961	2.054	2.151	2.248	2.461	2.68
333.15 K	1.579	1.592	1.653	1.734	1.814	1.896	2.066	2.249
343.15 K	1.354	1.367	1.419	1.487	1.555	1.624	1.765	1.917
353.14 K	–	1.187	–	–	–	–	–	–
353.15 K	1.177	–	1.233	1.292	1.351	1.411	1.534	1.662
363.15 K	1.032	1.041	1.081	1.133	1.183	1.236	1.343	1.453

COC(=O)CCCCC(=O)OC [dimethyl 1,6-hexanedioate]
viscosity [mPa·s]
Conditions	100 kPa	1000 kPa	5000 kPa	10000 kPa	15000 kPa	20000 kPa	30000 kPa	40000 kPa
293.15 K	–	–	3.46	3.623	3.787	3.958	4.333	4.722
293.17 K	3.302	3.331	–	–	–	–	–	–
303.15 K	–	–	2.735	2.854	–	–	–	–
303.16 K	–	–	–	–	2.985	3.115	3.384	3.672
303.17 K	2.617	2.637	–	–	–	–	–	–
313.14 K	–	2.151	–	–	2.422	2.522	2.727	–
313.15 K	2.129	–	2.227	2.326	–	–	–	2.955
323.14 K	–	–	–	–	–	–	–	2.432
323.15 K	1.774	1.789	1.85	1.928	2.008	2.089	2.254	–
333.14 K	–	–	–	–	–	–	–	2.046
333.15 K	1.503	1.514	1.565	1.629	1.696	1.764	1.903	–
343.15 K	1.293	1.303	1.346	1.401	1.457	1.514	1.63	1.752
353.15 K	1.128	–	1.174	1.221	1.269	1.317	1.417	1.52
353.16 K	–	1.136	–	–	–	–	–	–
363.13 K	–	–	–	–	1.115	1.157	–	–
363.15 K	0.9897	0.9971	1.03	1.072	–	–	1.244	1.332

CCCOC(=O)CCCCC(=O)OCCC [dipropyl hexanedioate]
viscosity [mPa·s]
Conditions	100 kPa	1000 kPa	5000 kPa	10000 kPa	15000 kPa	20000 kPa	30000 kPa	40000 kPa
283.15 K	6.153	6.217	6.536	6.943	7.36	7.811	8.759	9.76
293.14 K	–	4.65	–	–	–	–	–	–
293.15 K	4.599	–	4.87	5.155	5.456	5.773	6.429	7.169
303.15 K	3.567	3.604	3.766	3.983	4.205	4.434	4.938	5.457
313.15 K	2.854	2.889	3.014	3.178	3.347	3.519	3.899	4.293
323.14 K	–	–	–	2.592	–	–	–	–
323.15 K	2.34	2.364	2.464	–	2.725	2.867	3.157	3.475
333.15 K	1.954	1.973	2.058	2.163	2.275	2.391	2.624	2.875
343.15 K	1.658	1.673	1.744	1.835	1.928	2.019	2.216	2.42
353.15 K	1.426	1.44	1.5	1.577	1.654	1.736	1.9	2.074
363.15 K	1.242	1.253	1.306	1.371	1.439	1.508	1.649	1.798
